Data published in ChEMBL document CHEMBL2069245 (Bioorg Med Chem Lett, 2012).
In brackets after ≈: the same amount, converted by molar mass.

Legend:
Cytochrome P450 3A4 = Cytochrome P450 3A4 (Homo sapiens, UniProt P08684)
Cytochrome P450 1A2 = molecular target: T1, Cytochrome P450 1A2 (Homo sapiens, UniProt P05177)
T1 sequence (P05177 whole entry): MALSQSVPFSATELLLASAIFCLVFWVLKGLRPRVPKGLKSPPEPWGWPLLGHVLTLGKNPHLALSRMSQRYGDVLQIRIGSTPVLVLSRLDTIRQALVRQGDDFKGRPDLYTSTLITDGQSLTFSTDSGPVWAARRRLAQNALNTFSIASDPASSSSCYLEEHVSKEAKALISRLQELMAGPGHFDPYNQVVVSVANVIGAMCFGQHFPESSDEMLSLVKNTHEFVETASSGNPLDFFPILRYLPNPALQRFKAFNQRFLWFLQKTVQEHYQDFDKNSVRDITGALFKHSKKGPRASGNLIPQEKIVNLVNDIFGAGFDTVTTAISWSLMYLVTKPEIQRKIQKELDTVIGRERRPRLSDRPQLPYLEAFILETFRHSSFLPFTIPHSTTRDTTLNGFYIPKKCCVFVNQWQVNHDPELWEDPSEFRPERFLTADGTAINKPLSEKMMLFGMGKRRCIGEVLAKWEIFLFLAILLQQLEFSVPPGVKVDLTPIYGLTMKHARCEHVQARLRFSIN

Cytochrome P450 2D6 = Cytochrome P450 2D6 (Homo sapiens, UniProt P10635)
Sequence of Cytochrome P450 2D6 (P10635 whole entry): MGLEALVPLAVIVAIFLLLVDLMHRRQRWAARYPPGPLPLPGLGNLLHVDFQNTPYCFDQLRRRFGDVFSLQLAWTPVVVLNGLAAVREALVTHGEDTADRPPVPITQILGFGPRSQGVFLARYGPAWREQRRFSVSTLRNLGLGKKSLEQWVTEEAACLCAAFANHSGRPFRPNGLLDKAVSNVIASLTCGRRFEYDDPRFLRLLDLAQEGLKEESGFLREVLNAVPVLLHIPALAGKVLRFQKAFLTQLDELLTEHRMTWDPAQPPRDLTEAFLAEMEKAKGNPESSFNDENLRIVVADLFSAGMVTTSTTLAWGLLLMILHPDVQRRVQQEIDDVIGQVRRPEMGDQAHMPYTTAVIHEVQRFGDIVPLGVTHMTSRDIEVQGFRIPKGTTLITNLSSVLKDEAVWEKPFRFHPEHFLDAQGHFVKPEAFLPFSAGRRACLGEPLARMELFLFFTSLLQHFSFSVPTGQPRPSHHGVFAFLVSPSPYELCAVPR

physchem = details: 1% DMSO, pH 6.8
[1] = molecular target: T2, Neuropeptide Y receptor type 5 (Mus musculus, UniProt O70342); assay: Displacement of [125I]PYY from mouse NPY Y5 receptor
T2 sequence (O70342 whole entry): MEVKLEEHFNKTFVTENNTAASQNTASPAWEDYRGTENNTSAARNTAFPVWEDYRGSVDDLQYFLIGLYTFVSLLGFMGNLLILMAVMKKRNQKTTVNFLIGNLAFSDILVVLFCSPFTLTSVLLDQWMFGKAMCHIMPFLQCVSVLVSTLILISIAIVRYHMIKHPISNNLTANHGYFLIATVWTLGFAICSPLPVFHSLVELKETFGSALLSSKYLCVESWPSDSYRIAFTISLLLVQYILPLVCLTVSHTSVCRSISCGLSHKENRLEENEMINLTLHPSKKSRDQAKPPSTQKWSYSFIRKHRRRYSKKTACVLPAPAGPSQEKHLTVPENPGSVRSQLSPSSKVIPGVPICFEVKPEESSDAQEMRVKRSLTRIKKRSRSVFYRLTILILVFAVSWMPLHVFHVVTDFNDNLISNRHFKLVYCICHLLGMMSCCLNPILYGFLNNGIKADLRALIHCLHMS

Cytochrome P450 2C9 = Cytochrome P450 2C9 (Homo sapiens, UniProt P11712)
Sequence of Cytochrome P450 2C9 (P11712 whole entry): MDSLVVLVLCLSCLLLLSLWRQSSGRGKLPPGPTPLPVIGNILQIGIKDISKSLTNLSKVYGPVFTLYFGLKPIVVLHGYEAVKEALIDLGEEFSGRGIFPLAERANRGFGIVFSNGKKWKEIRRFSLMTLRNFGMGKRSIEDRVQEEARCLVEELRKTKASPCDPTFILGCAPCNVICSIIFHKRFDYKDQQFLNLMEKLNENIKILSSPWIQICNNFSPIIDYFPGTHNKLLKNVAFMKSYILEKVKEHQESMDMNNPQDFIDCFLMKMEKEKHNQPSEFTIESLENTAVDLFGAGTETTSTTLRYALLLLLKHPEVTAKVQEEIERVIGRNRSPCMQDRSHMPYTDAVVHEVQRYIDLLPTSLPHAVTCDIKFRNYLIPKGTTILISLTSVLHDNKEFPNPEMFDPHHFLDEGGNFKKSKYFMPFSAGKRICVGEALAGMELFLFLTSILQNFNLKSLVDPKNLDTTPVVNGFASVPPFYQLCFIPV

Cytochrome P450 2C19 = Cytochrome P450 2C19 (Homo sapiens, UniProt P33261)
Sequence of Cytochrome P450 2C19 (P33261 whole entry): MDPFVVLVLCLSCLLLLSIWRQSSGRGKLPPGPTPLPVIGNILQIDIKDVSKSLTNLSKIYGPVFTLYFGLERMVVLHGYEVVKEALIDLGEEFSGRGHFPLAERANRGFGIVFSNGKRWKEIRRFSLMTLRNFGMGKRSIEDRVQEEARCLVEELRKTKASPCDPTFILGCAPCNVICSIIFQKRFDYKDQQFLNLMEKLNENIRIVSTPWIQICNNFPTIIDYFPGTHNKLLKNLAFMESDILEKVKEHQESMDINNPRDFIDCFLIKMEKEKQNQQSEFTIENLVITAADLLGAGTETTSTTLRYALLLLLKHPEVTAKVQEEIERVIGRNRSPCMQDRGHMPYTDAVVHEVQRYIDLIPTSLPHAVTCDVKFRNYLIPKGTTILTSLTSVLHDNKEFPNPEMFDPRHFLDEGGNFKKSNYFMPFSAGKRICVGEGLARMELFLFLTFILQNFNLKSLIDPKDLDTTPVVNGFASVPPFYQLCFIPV

in vitro [2] = details: human, liver microsomes
in vitro [3] = details: rat, liver microsomes

Sequence of Cytochrome P450 3A4 (P08684 whole entry): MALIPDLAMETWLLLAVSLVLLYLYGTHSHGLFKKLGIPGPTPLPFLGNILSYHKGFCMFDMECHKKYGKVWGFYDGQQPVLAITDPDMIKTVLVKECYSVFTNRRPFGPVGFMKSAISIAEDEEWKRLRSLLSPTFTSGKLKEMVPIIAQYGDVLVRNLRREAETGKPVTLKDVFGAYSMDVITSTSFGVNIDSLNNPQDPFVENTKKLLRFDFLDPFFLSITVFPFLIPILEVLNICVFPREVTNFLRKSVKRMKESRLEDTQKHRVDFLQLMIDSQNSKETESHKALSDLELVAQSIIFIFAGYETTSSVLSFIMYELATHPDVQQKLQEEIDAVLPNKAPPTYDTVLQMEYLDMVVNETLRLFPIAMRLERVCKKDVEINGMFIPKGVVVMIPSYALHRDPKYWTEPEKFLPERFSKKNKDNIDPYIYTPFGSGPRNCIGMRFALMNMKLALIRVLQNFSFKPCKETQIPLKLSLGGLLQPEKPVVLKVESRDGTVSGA

Row | Structure (SMILES) | IC50 (Cytochrome P450 3A4) [µM] | IC50 (Cytochrome P450 1A2) [µM] | IC50 (Cytochrome P450 2D6) [µM] | solubility kinetic (physchem) [µM] | IC50 [1] [µM] | IC50 (Cytochrome P450 2C9) [µM] | IC50 (Cytochrome P450 2C19) [µM] | remaining at 0.5 h (in vitro [2]) [%] | remaining at 0.5 h (in vitro [3]) [%]
1 | CCS(=O)(=O)c1ccc2nc(-c3cccc(-c4ccccc4)c3F)[nH]c2c1 | 6.6 | 1.1 | > 20 | 0.6 (≈ 0.228 µg/mL) | 0.0027 |  |  |  | 
2 | CCCS(=O)(=O)c1ccc2[nH]c(-c3ccc(=O)n(-c4ccccc4)c3)nc2c1 | > 20 | > 20 | > 20 |  |  | > 20 | > 20 | 88.5 | 78.6
3 | CCS(=O)(=O)c1ccc2[nH]c(-c3cc(-c4ccccc4)ccc3F)nc2c1 |  |  |  |  | 0.00054 |  |  |  | 
4 | CCS(=O)(=O)c1ccc2[nH]c(-c3ccc(Cl)c(-c4ccccc4)c3)nc2c1 | 2.6 | 8.5 | 18 |  | 0.00016 |  |  |  | 
5 | CCS(=O)(=O)c1ccc2[nH]c(-c3cccc(-c4ccccc4)n3)nc2c1 |  |  |  |  | 0.0389 |  |  |  | 
6 | CC(C)(C)S(=O)(=O)c1ccc2nc(-c3ccc(=O)n(-c4ccccc4)c3)[nH]c2c1 | > 20 | > 20 | > 20 | 9.4 (≈ 3.83 µg/mL) | 0.0075 |  |  | 94.2 | > 99.9
7 | O=c1ccc(-c2nc3ccc(S(=O)(=O)C(F)(F)F)cc3[nH]2)cn1-c1ccccc1 |  |  |  |  | 0.0025 |  |  |  | 
8 | CCS(=O)(=O)c1ccc2nc(-c3cc(-c4ccccc4)ccn3)[nH]c2c1 |  |  |  |  | 0.00055 |  |  |  | 
9 | CCCS(=O)(=O)c1ccc2nc(-c3ccc(-c4ccccc4)cc3)[nH]c2c1 | 2.9 | > 20 | 15 |  |  |  |  |  | 
10 | CCCS(=O)(=O)c1ccc2nc(-c3cn(-c4ccccc4)ccc3=O)[nH]c2c1 | > 20 | > 20 | > 20 | 2 (≈ 0.787 µg/mL) | 0.579 | > 20 | > 20 |  | 
11 | CCS(=O)(=O)c1ccc2[nH]c(-c3cncc(-c4ccccc4)c3)nc2c1 | 7.8 | 6.3 | > 20 |  |  |  |  |  | 
12 | CCCS(=O)(=O)c1ccc2[nH]c(-c3cccn(-c4ccccc4)c3=O)nc2c1 | > 20 | > 20 | > 20 |  |  | > 20 | > 20 |  | 
13 | CCS(=O)(=O)c1ccc2nc(-c3cc(-c4ccccc4)ccc3C)[nH]c2c1 |  | 0.4 | 14 | 0.5 (≈ 0.188 µg/mL) | 0.383 |  |  |  | 
14 | CCS(=O)(=O)c1ccc2[nH]c(-c3ccnc(-c4ccccc4)c3)nc2c1 | 8.7 | 3.4 | > 20 | 20.3 (≈ 7.38 µg/mL) | 0.00031 |  |  |  | 

Second part, the compound after the results:

Row | IC50 (Cytochrome P450 3A4) [µM] | IC50 (Cytochrome P450 1A2) [µM] | IC50 (Cytochrome P450 2D6) [µM] | solubility kinetic (physchem) [µM] | IC50 [1] [µM] | IC50 (Cytochrome P450 2C9) [µM] | IC50 (Cytochrome P450 2C19) [µM] | remaining at 0.5 h (in vitro [2]) [%] | remaining at 0.5 h (in vitro [3]) [%] | Structure (SMILES)
15 | 5.2 | 7.8 | > 20 | 3.2 (≈ 1.2 µg/mL) | 0.0218 |  |  |  |  | CCS(=O)(=O)c1ccc2nc(-c3cccc(-c4ccccc4)c3C)[nH]c2c1
16 |  |  |  |  | 0.0019 |  |  |  |  | CCCS(=O)(=O)c1ccc2nc(-c3cccc(OC(F)(F)F)c3)[nH]c2c1
17 | 11 | > 20 | 15 | 23.6 (≈ 8.88 µg/mL) | 4.06 | 4.5 | > 20 |  |  | CCCS(=O)(=O)c1ccc2[nH]c(-c3ccccc3-c3ccccc3)nc2c1
18 | 5.6 | 3.4 | 16 | 0.2 (≈ 0.0761 µg/mL) | 0.00016 |  |  |  |  | CCS(=O)(=O)c1ccc2nc(-c3ccc(F)c(-c4ccccc4)c3)[nH]c2c1
19 | 5 | 0.4 | 15 | 0.4 (≈ 0.159 µg/mL) | 0.0311 |  |  |  |  | CCS(=O)(=O)c1ccc2nc(-c3cc(-c4ccccc4)ccc3Cl)[nH]c2c1
20 | 3.8 | 3 | 18 | 1.5 (≈ 0.595 µg/mL) | 0.0405 |  |  |  |  | CCS(=O)(=O)c1ccc2[nH]c(-c3cccc(-c4ccccc4)c3Cl)nc2c1
21 | 6 | 2.7 | > 20 | 0.5 (≈ 0.188 µg/mL) | 0.00043 |  |  | 68.6 | 57.1 | CCCS(=O)(=O)c1ccc2[nH]c(-c3cccc(-c4ccccc4)c3)nc2c1
22 | > 20 | 2.9 | > 20 | > 50 | 4.66 |  |  |  |  | CCCS(=O)(=O)c1ccc2nc(-c3ccccc3)[nH]c2c1
23 | 20 | 0.4 | > 20 |  |  |  |  |  |  | CCCS(=O)(=O)c1ccc2nc(-c3cccc(C(F)(F)F)c3)[nH]c2c1
24 |  |  |  |  | 0.00046 |  |  |  |  | CCS(=O)(=O)c1ccc2[nH]c(-c3cccc(-c4ccccc4)c3)nc2c1
25 | 5.7 | 3.2 | > 20 |  |  |  |  |  |  | CCS(=O)(=O)c1ccc2nc(-c3ccc(C)c(-c4ccccc4)c3)[nH]c2c1
26 | > 20 | > 20 | > 20 | 7.7 (≈ 3.34 µg/mL) | 0.00029 |  |  | 94.7 | 93.6 | O=c1ccc(-c2nc3cc(S(=O)(=O)CC(F)(F)F)ccc3[nH]2)cn1-c1ccccc1
